Measurements published in PubChem BioAssay AID256 (DTP/NCI, 2004).
Several values for one entry are separate records, joined by “and”; a condition that tells them apart may be missing. Equal entries are not always repeated. Toxic doses and inconclusive results are not listed.

System: CD2F1 mice, L1210 leukemia ip, survival T/C
Assay: NCI In Vivo Anticancer Drug Screen. Data for tumor model L1210 Leukemia (intraperitoneal) in CD2F1 (CDF1) mice
Conditions: higher = longer survival
Summary of the method: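 Activity against a transplanted murine tumor was judged by comparing the compound group with a vehicle group. The outcome in the treated animals was divided by that in the controls.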

[1] = endpoint: mean survival time, dose: 100.0 mg/kg/injection, schedule: Q01DX009 (ip), vehicle: saline
[2] = endpoint: mean survival time, dose: 100.0 mg/kg/injection, schedule: Q04DX003 (ip), vehicle: saline with Tween-80
[3] = endpoint: mean survival time, dose: 200.0 mg/kg/injection, schedule: Q04DX003 (ip), vehicle: saline with Tween-80
[4] = endpoint: mean survival time, dose: 400.0 mg/kg/injection, schedule: Q04DX003 (ip), vehicle: saline with Tween-80

Cc1ccc(-n2nc(C3OCC(O)C3O)c3nc4cc(C)c(C)cc4nc32)cc1 (stereo unspecified)
T/C (endpoint: median survival time, dose: 10.0 mg/kg/injection, schedule: Q01DX005 (ip), vehicle: distilled water + Tween-80): 98 % of control
T/C (endpoint: median survival time, dose: 20.0 mg/kg/injection, schedule: Q01DX005 (ip), vehicle: distilled water + Tween-80): 97 % of control
T/C (endpoint: median survival time, dose: 40.0 mg/kg/injection, schedule: Q01DX005 (ip), vehicle: distilled water + Tween-80): 103 % of control
T/C (endpoint: median survival time, dose: 80.0 mg/kg/injection, schedule: Q01DX005 (ip), vehicle: distilled water + Tween-80): 97 % of control
T/C (endpoint: median survival time, dose: 160.0 mg/kg/injection, schedule: Q01DX005 (ip), vehicle: distilled water + Tween-80): 98 % of control

Cc1cc2c(=O)cc(-c3ccccc3)oc2c(C(=O)O)c1C
T/C (endpoint: median survival time, dose: 31.75 mg/kg/injection, schedule: Q01DX005 (ip), vehicle: saline with Tween-80): 109 % of control
T/C (endpoint: median survival time, dose: 62.5 mg/kg/injection, schedule: Q01DX005 (ip), vehicle: saline with Tween-80): 106 % of control
T/C (endpoint: median survival time, dose: 125.0 mg/kg/injection, schedule: Q01DX005 (ip), vehicle: saline with Tween-80): 104 % of control
T/C (endpoint: median survival time, dose: 250.0 mg/kg/injection, schedule: Q01DX005 (ip), vehicle: saline with Tween-80): 102 % of control

O=c1oc(-c2ccccc2)nc2c(Cl)ccc(Cl)c12
T/C (endpoint: mean survival time, dose: 90.0 mg/kg/injection, schedule: Q04DX003 (ip), vehicle: other): 107 % of control
T/C (endpoint: mean survival time, dose: 135.0 mg/kg/injection, schedule: Q04DX003 (ip), vehicle: other): 97 % of control
T/C (endpoint: mean survival time, dose: 200.0 mg/kg/injection, schedule: Q04DX003 (ip), vehicle: other): 119 % of control
T/C (endpoint: mean survival time, dose: 300.0 mg/kg/injection, schedule: Q04DX003 (ip), vehicle: other): 102 % of control

CSc1nc(NC2OC(CO)C(O)C(O)C2O)c(I)c(=O)[nH]1 (stereo unspecified)
T/C (endpoint: median survival time, dose: 12.5 mg/kg/injection, schedule: Q01DX005 (ip), vehicle: saline with Tween-80): 100 % of control
T/C (endpoint: median survival time, dose: 25.0 mg/kg/injection, schedule: Q01DX005 (ip), vehicle: saline with Tween-80): 98 % of control
T/C (endpoint: median survival time, dose: 50.0 mg/kg/injection, schedule: Q01DX005 (ip), vehicle: saline with Tween-80): 100 % of control
T/C (endpoint: median survival time, dose: 100.0 mg/kg/injection, schedule: Q01DX005 (ip), vehicle: saline with Tween-80): 100 % of control
T/C (endpoint: median survival time, dose: 200.0 mg/kg/injection, schedule: Q01DX005 (ip), vehicle: saline with Tween-80): 102 % of control

NC1CCCCC1N.O=C([O-])c1ccc(N=Nc2cccc([N+](=O)[O-])c2)cc1O.O=C([O-])c1ccc(N=Nc2cccc([N+](=O)[O-])c2)cc1O.[Pt+4]
T/C (endpoint: median survival time, dose: 3.12 mg/kg/injection, schedule: Q04DX003 (ip), vehicle: saline with Tween-80): 150 % of control and 301 % of control
T/C (endpoint: median survival time, dose: 6.25 mg/kg/injection, schedule: Q04DX003 (ip), vehicle: saline with Tween-80): 190 % of control and 247 % of control
T/C (endpoint: median survival time, dose: 12.5 mg/kg/injection, schedule: Q04DX003 (ip), vehicle: saline with Tween-80): 361 % of control and 375 % of control
T/C (endpoint: median survival time, dose: 50.0 mg/kg/injection, schedule: Q04DX003 (ip), vehicle: saline with Tween-80): 89 % of control

N/C=N/O
T/C (endpoint: mean survival time, dose: 66.0 mg/kg/injection, schedule: Q01DX009 (ip), vehicle: saline): 112 % of control
T/C [1]: 120 % of control and 110 % of control
T/C (endpoint: mean survival time, dose: 400.0 mg/kg/injection, schedule: Q01DX009 (ip), vehicle: saline): 114 % of control

CC(=O)Nc1ccc(Br)c(NC(C)=O)n1
T/C [2]: 95 % of control
T/C [3]: 98 % of control
T/C [4]: 104 % of control

N=C(N)Cc1ccc(NC(=O)c2ccc(C(=O)Nc3ccc(CC(=N)N)cc3)cc2)cc1
T/C (endpoint: mean survival time, dose: 7.2 mg/kg/injection, schedule: Q01DX009 (ip), vehicle: acetone): 102 % of control
T/C (endpoint: mean survival time, dose: 10.8 mg/kg/injection, schedule: Q01DX009 (ip), vehicle: acetone): 121 % of control

O=[N+]([O-])c1cccc(OCCOc2ccccc2)c1
T/C [2]: 98 % of control
T/C [3]: 94 % of control
T/C [4]: 91 % of control

CC12C=CC(=O)C=C1CCCC2 (stereo unspecified)
T/C (endpoint: mean survival time, dose: 12.5 mg/kg/injection, schedule: Q04DX002 (ip), vehicle: saline with Tween-80): 96 % of control
T/C (endpoint: mean survival time, dose: 25.0 mg/kg/injection, schedule: Q04DX002 (ip), vehicle: saline with Tween-80): 91 % of control
T/C (endpoint: mean survival time, dose: 50.0 mg/kg/injection, schedule: Q04DX002 (ip), vehicle: saline with Tween-80): 96 % of control

CC1C(=O)CC(C)(C)C=CC1C1C=CC(C)(C)CC(=O)C1C (stereo unspecified)
T/C (endpoint: mean survival time, dose: 75.0 mg/kg/injection, schedule: Q01DX001 (ip), vehicle: other): 97 % of control
T/C (endpoint: mean survival time, dose: 150.0 mg/kg/injection, schedule: Q01DX001 (ip), vehicle: other): 97 % of control
T/C (endpoint: mean survival time, dose: 300.0 mg/kg/injection, schedule: Q01DX001 (ip), vehicle: other): 96 % of control

CCCC(=O)N(CC)CC
T/C (endpoint: mean survival time, dose: 50.0 mg/kg/injection, schedule: Q01DX009 (ip), vehicle: saline): 94 % of control
T/C [1]: 98 % of control
T/C (endpoint: mean survival time, dose: 200.0 mg/kg/injection, schedule: Q01DX009 (ip), vehicle: saline): 98 % of control

O=C1c2ccccc2C(=O)N1CNc1cccc(NCN2C(=O)c3ccccc3C2=O)c1
T/C (endpoint: mean survival time, dose: 100.0 mg/kg/injection, schedule: Q01DX009 (ip), vehicle: acetone): 98 % of control
T/C (endpoint: mean survival time, dose: 200.0 mg/kg/injection, schedule: Q01DX009 (ip), vehicle: acetone): 103 % of control
T/C (endpoint: mean survival time, dose: 400.0 mg/kg/injection, schedule: Q01DX009 (ip), vehicle: acetone): 93 % of control

c1cc(NC2CCCCC2)ccc1CN1CCOCC1
T/C (endpoint: mean survival time, dose: 12.5 mg/kg/injection, schedule: Q01DX009 (ip), vehicle: saline + Tween-80 + alcohol): 99 % of control and 100 % of control
T/C (endpoint: mean survival time, dose: 25.0 mg/kg/injection, schedule: Q01DX009 (ip), vehicle: saline + Tween-80 + alcohol): 99 % of control and 102 % of control
T/C (endpoint: mean survival time, dose: 50.0 mg/kg/injection, schedule: Q01DX009 (ip), vehicle: saline + Tween-80 + alcohol): 97 % of control and 100 % of control
T/C (endpoint: mean survival time, dose: 100.0 mg/kg/injection, schedule: Q01DX009 (ip), vehicle: saline + Tween-80 + alcohol): 99 % of control and 103 % of control
T/C (endpoint: mean survival time, dose: 200.0 mg/kg/injection, schedule: Q01DX009 (ip), vehicle: saline + Tween-80 + alcohol): 94 % of control and 100 % of control
T/C (endpoint: mean survival time, dose: 400.0 mg/kg/injection, schedule: Q01DX009 (ip), vehicle: saline + Tween-80 + alcohol): 97 % of control and 100 % of control

O=c1[nH]c2cnn(-c3ccccc3)c2[nH]1
T/C (endpoint: mean survival time, dose: 100.0 mg/kg/injection, schedule: Q01DX001 (ip), vehicle: saline with Tween-80): 97 % of control
T/C (endpoint: mean survival time, dose: 200.0 mg/kg/injection, schedule: Q01DX001 (ip), vehicle: saline with Tween-80): 97 % of control
T/C (endpoint: mean survival time, dose: 400.0 mg/kg/injection, schedule: Q01DX001 (ip), vehicle: saline with Tween-80): 93 % of control

CC(=O)OCCC/C(=C\c1ccc(Cl)c(Cl)c1)[N+](=O)[O-]
T/C (endpoint: mean survival time, dose: 100.0 mg/kg/injection, schedule: Q01DX001 (ip), vehicle: saline): 100 % of control

Cc1cc(C)c(C(=O)CC(C#N)c2ccccc2)c(C)c1 (stereo unspecified)
T/C [2]: 95 % of control
T/C [3]: 98 % of control
T/C [4]: 91 % of control

Cc1cc(Br)cc(Br)c1OCC(=O)O
T/C (endpoint: mean survival time, dose: 50.0 mg/kg/injection, schedule: Q01DX009 (ip), vehicle: Klucel (hydroxypropylcellulose) (HPC)): 96 % of control
T/C (endpoint: mean survival time, dose: 100.0 mg/kg/injection, schedule: Q01DX009 (ip), vehicle: Klucel (hydroxypropylcellulose) (HPC)): 93 % of control
T/C (endpoint: mean survival time, dose: 200.0 mg/kg/injection, schedule: Q01DX009 (ip), vehicle: Klucel (hydroxypropylcellulose) (HPC)): 96 % of control

CCOC(=O)c1c2cccccc-2c(C(=O)OCC)c1N
T/C [2]: 95 % of control
T/C [3]: 109 % of control
T/C [4]: 92 % of control

Nc1cc2c(c[n+](Cc3ccccc3)c3ccccc23)c2ccccc12
T/C (endpoint: mean survival time, dose: 0.39 mg/kg/injection, schedule: Q04DX003 (ip), vehicle: other): 104 % of control
T/C (endpoint: mean survival time, dose: 0.78 mg/kg/injection, schedule: Q04DX003 (ip), vehicle: other): 98 % of control
T/C (endpoint: mean survival time, dose: 1.56 mg/kg/injection, schedule: Q04DX003 (ip), vehicle: other): 104 % of control
T/C (endpoint: mean survival time, dose: 6.25 mg/kg/injection, schedule: Q04DX003 (ip), vehicle: other): 91 % of control

CCCCCCCCCCCCCCCCCC[Se][Se]CCCCCCCCCCCCCCCCCC
T/C (endpoint: mean survival time, dose: 25.0 mg/kg/injection, schedule: Q04DX003 (ip), vehicle: saline with Tween-80): 93 % of control
T/C (endpoint: mean survival time, dose: 50.0 mg/kg/injection, schedule: Q04DX003 (ip), vehicle: saline with Tween-80): 95 % of control
T/C [2]: 95 % of control

CS(=O)(=O)c1ncc(Br)cn1
T/C (endpoint: mean survival time, dose: 3.12 mg/kg/injection, schedule: Q01DX009 (ip), vehicle: saline with Tween-80): 101 % of control
T/C (endpoint: mean survival time, dose: 3.13 mg/kg/injection, schedule: Q01DX009 (ip), vehicle: saline with Tween-80): 101 % of control
T/C (endpoint: mean survival time, dose: 6.25 mg/kg/injection, schedule: Q01DX009 (ip), vehicle: saline with Tween-80): 101 % of control and 106 % of control
T/C (endpoint: mean survival time, dose: 12.5 mg/kg/injection, schedule: Q01DX009 (ip), vehicle: saline with Tween-80): 101 % of control and 102 % of control
T/C (endpoint: mean survival time, dose: 25.0 mg/kg/injection, schedule: Q01DX009 (ip), vehicle: saline with Tween-80): 95 % of control and 107 % of control
T/C (endpoint: mean survival time, dose: 50.0 mg/kg/injection, schedule: Q01DX009 (ip), vehicle: saline with Tween-80): 103 % of control and 104 % of control
T/C (endpoint: mean survival time, dose: 100.0 mg/kg/injection, schedule: Q01DX009 (ip), vehicle: saline with Tween-80): 104 % of control and 108 % of control

CC1SC(=S)N(c2ccccc2)C1=O (stereo unspecified)
T/C [2]: 112 % of control
T/C [3]: 97 % of control
T/C [4]: 101 % of control
